Read-outs that look alike come from different tables or passages of the source.

What all share (format): cell-based, human
The subject of test [1] is HCT-15. Kind of test: 3H thymidine proliferation assay, HCT-15. An outline of the steps: (§1)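 EC50 from ^3H-thymidine uptake: 1.0 μCi/well pulse during final 24 h of a 72 h exposure; scintillation count. 1.0×10^4 cells/well, seeded 3 h before 1:3 serial dilutions of unconjugated compound or conjugate.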
In test [2] the test system is A2058. Nature of the test: 3H thymidine proliferation assay, A2058. The settings on record: 3H thymidine method, 72 h incubation. An outline of the steps: as §1
Test [3] relates to NCI-H460. Nature of the test: 3H thymidine proliferation assay, NCI-H460. An outline of the steps:
as §1

Test [4] deals with A549. Nature of the test: 3H thymidine proliferation assay, A549. An outline of the steps:
as §1

Test [5] deals with PC3. Nature of the test: 3H thymidine proliferation assay, PC3. An outline of the steps: as §1
Test [6] concerns BT474. Nature of the test: 3H thymidine proliferation assay, BT474. The procedure, abridged:
as §1

The test system of test [7] is 786-O. Nature of the test: 3H thymidine proliferation assay, 786-O. The procedure, abridged:
as §1

Test [8] deals with UO-31. Kind of test: 3H thymidine proliferation assay, UO-31. An outline of the steps:
as §1

Test [9] concerns H740. Nature of the test: 3H thymidine proliferation assay, H740. An outline of the steps: as §1
Test [10] has as its system DMS53. Kind of test: 3H thymidine proliferation assay, DMS53. The procedure, abridged:
as §1

Test [11] has as its system HL-60. Nature of the test: 3H thymidine proliferation assay, HL-60. The procedure, abridged: as §1
Test [12] relates to OVCAR8. Kind of test: 3H thymidine proliferation assay, OVCAR8. The procedure, abridged:
as §1

Test [13] relates to Nomo-1. Nature of the test: 3H thymidine proliferation assay, Nomo-1. The procedure, abridged:
as §1

Test [14] deals with Raji. Kind of test: 3H thymidine proliferation assay, Raji. An outline of the steps:
as §1

Test [15] concerns HCT-15. Kind of test: ATP luminescence proliferation assay, HCT-15. An outline of the steps:
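Free compounds and conjugates tested as 1:3 dilution series on cells seeded 3 h earlier at 1.0×10^3/well. Exposure 48, 72 or 96 h; ATP-based luminescence; EC50 taken at 50% proliferation reduction.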

In test [16] the test system is Hep3B. Nature of the test: ATP luminescence proliferation assay, Hep3B. As to the method:
(§2) This example generally describes the procedures used to assay the antiproliferative activity of compounds of this invention or their conjugates. Human tumor cell lines were obtained from the American Type Culture Collection (ATCC), P.O. Box 1549, Manassas, Va. 20108, USA, and cultured according to instruction from the ATCC. Cells were seeded at 1.0×10^3 or 1.0×10^4 cells/well in 96-well plates for 3 h for ATP assays or ^3H thymidine assays, respectively. 1:3 serial dilutions of free (unconjugated) compounds or their conjugates were added to the wells. Plates were allowed to incubate for 24 to 72 h. The ^3H thymidine plates were pulsed with 1.0 μCi of ^3H-thymidine per well for the last 24 hours of the total incubation period, harvested, and read on a Top Count Scintillation Counter (Packard Instruments, Meriden, Conn.). ATP levels in the ATP plates were measured using the […]-GLO® Luminescent Cell Viability kit following the manufacturer's manual and read on a GLOMAX® 20/20 luminometer (both from Promega, Madison, Wis., USA). The EC50 values—the concentration at which an agent inhibits or reduces cell proliferation by 50% —were determined using PRISM™ software, version 4.0 (GraphPad Software, La Jolla, Calif., USA).
(§3) Using the ^3H thymidine or the ATP luminescence assay, or both, the activities of compounds of this invention were assayed against the following cancer cell lines: HCT-15 (colorectal cancer, multi-drug resistant (MDR)); Hep3B (liver cancer); LNCaP (prostate cancer, androgen receptor positive (AR^+)); MDA-MB-231 (breast cancer, estrogen receptor, progesterone receptor, and Her2 negative (triple negative)); A2058 (melanoma); U-87 MG (glioblastoma); NCI-H460 (NSCLC); A549 (NSCLC); HPAC (pancreatic cancer, primary); PC3 (prostate cancer, AR); BT474 (breast cancer, Her2 highly positive (Her2hi)); SKOV3 (ovarian cancer, Her2hi); 786-O (renal cancer); UO-31 (renal cancer, MDR); NCI-H740 (SCLC); DMS53 (SCLC); SK-BR3 (breast cancer, Her2hi); ZR-75 (breast cancer, estrogen receptor positive); OVCAR3 (ovarian cancer); HL-60 (APL); OVCAR8/Adr (ovarian cancer, MDR); CEM-Cl (ALL); Nomo-1 (AML); RPMI-8226 (MM)); Raji (lymphoma); SW-480 (colorectal cancer, metastatic); SW-620 (colorectal cancer); and H226 (lung cancer). (Not all compounds were assayed against all cell lines.)
(§4) Table 3 provides the data for the ATP luminescence proliferation assays, with an incubation period of 48, 72, or 96 h, as noted.

In test [17] the test system is A2058. Nature of the test: ATP luminescence proliferation assay, A2058. As to the method: as §2, §3, §4
The test system of test [18] is HPAC. Kind of test: ATP luminescence proliferation assay, HPAC. As for the experimental part:
as §2, §3, §4

In test [19] the test system is BT474. Kind of test: ATP luminescence proliferation assay, BT474. As to the method: as §2, §3, §4
The test system of test [20] is CEM-Cl. Kind of test: ATP luminescence proliferation assay, CEM-C1. As for the experimental part:
as §2, §3, §4

Test [21] has as its system SW-620. Nature of the test: ATP luminescence proliferation assay, SW-620. As for the experimental part: as §2, §3, §4
Setting [22] is: Homo sapiens, HCT-15, read-out: EC50, HCT-15, 3H thymidine method, 72 h incubation.
[23] abbreviates: Homo sapiens, NCI-H460, read-out: EC50, NCI-H460, 3H thymidine method, 72 h incubation.
Setting [24] is: Homo sapiens, A549, read-out: EC50, A549, 3H thymidine method, 72 h incubation.
The mark [25] stands for this setting: Homo sapiens, PC-3, read-out: EC50, PC3, 3H thymidine method, 72 h incubation.
The mark [26] stands for this setting: Homo sapiens, BT-474, read-out: EC50, BT474, 3H thymidine method, 72 h incubation.
[27] abbreviates: Homo sapiens, 786-0, read-out: EC50, 786-O, 3H thymidine method, 72 h incubation.
Setting [28] is: Homo sapiens, UO-31, read-out: EC50, UO-31, 3H thymidine method, 72 h incubation.
The mark [29] stands for this setting: Homo sapiens, read-out: EC50, H740, 3H thymidine method, 72 h incubation.
Setting [30] is: Homo sapiens, DMS-53, read-out: EC50, DMS53, 3H thymidine method, 72 h incubation.
The mark [31] stands for this setting: Homo sapiens, HL-60, read-out: EC50, HL-60, 3H thymidine method, 72 h incubation.
[32] abbreviates: Homo sapiens, OVCAR-8, read-out: EC50, OVCAR8, 3H thymidine method, 72 h incubation.
Setting [33] is: Homo sapiens, NOMO-1, read-out: EC50, Nomo-1, 3H thymidine method, 72 h incubation.
Where [34] appears, read: Homo sapiens, Raji, read-out: EC50, Raji, 3H thymidine method, 72 h incubation.
[35] abbreviates: Homo sapiens, HCT-15, 72 h, read-out: EC50 HCT-15 (72 h), ATP luminescence, HCT-15, 72 h incubation.
Setting [36] is: Homo sapiens, 48 h, read-out: EC50 Hep3B (48 h), ATP luminescence, Hep3B, 48 h incubation.
Setting [37] is: Homo sapiens, A2058, 72 h, read-out: EC50 A2058 (72 h), ATP luminescence, A2058, 72 h incubation.
Setting [38] is: Homo sapiens, 72 h, read-out: EC50 HPAC (72 h), ATP luminescence, HPAC, 72 h incubation.
[39] abbreviates: Homo sapiens, BT-474, 48 h, read-out: EC50 BT474 (48 h), ATP luminescence, BT474, 48 h incubation.
The mark [40] stands for this setting: Homo sapiens, CEM/C1, 72 h, read-out: EC50 CEM-C1 (72 h), ATP luminescence, CEM-C1, 72 h incubation.
Setting [41] is: Homo sapiens, SW-620, 96 h, read-out: EC50 SW-620 (96 h), ATP luminescence, SW-620, 96 h incubation.

Regarding `CC[C@H](C)[C@H](NC(=O)[C@H]1CCCCN1C)C(=O)N(C)[C@H](C[C@@H](OC)c1nc(C(=O)N[C@H](CC(=O)OC)Cc2ccccc2)cs1)C(C)C` [Compound 25], the EC50 (as a rule, the concentration that produces a half-maximal response) in [1] (setting [22]) was 280 nM; in test [2] (Homo sapiens, A2058), 409 nM; in test [3] (setting [23]), 306 nM; in test [4] (setting [24]) it was 270 nM; in [5] (setting [25]), 319 nM; in [6] (setting [26]) it was 804 nM. Moreover, the EC50 in test [7] (setting [27]) was determined as 1860 nM; in test [8] (setting [28]) it was 435 nM; in test [9] (setting [29]), 347 nM; in test [10] (setting [30]), 515 nM; in test [11] (setting [31]), 308 nM; in test [12] (setting [32]), 946 nM. Further, the EC50 in [13] (setting [33]) is 116 nM; in test [14] (setting [34]), 231 nM; in [15] (setting [35]), 366 nM; in test [16] (setting [36]), 246 nM; in test [17] (setting [37]) it was 212 nM; in test [18] (setting [38]) it was 97 nM. The EC50 in test [19] (setting [39]) is 166 nM; in test [20] (setting [40]), 176 nM; in test [21] (setting [41]), 193 nM.
Regarding `CC[C@H](C)[C@H](NC(=O)[C@H]1CCCCN1C)C(=O)N(C)[C@H](C[C@@H](OC)c1nc(C(=O)N[C@@H](Cc2ccccc2)C(=O)N[C@@H](C)C(=O)OC)cs1)C(C)C` [Compound 24], the EC50 in test [1] (setting [22]) was 704 nM; in test [2] (Homo sapiens, A2058) it was 0.12 nM; in test [3] (setting [23]) it was above 100 nM; in test [4] (setting [24]), 38 nM; in test [5] (setting [25]), 63 nM; in test [6] (setting [26]), above 100 nM. Moreover, the EC50 in test [7] (setting [27]) is above 100 nM; in test [8] (setting [28]) it was above 100 nM; in test [9] (setting [29]) it was 51 nM; in test [10] (setting [30]), above 100 nM; in test [11] (setting [31]) it was 6.9 nM; in test [12] (setting [32]) it was above 100 nM. Moreover, the EC50 in test [13] (setting [33]) is 1.1 nM; in test [14] (setting [34]), 11 nM; in test [15] (setting [35]), 188 nM; in [16] (setting [36]) it was 10 nM; in [17] (setting [37]) it was 14 nM; in test [18] (setting [38]), 1.1 nM. Also, the EC50 in test [19] (setting [39]) was 4.6 nM; in test [20] (setting [40]), 8.7 nM; in test [21] (setting [41]), 10 nM.
For `CC[C@H](C)[C@H](NC(=O)[C@H]1CCCCN1C)C(=O)N(COC(=O)CC(C)C)[C@H](C[C@@H](OC(C)=O)c1nc(C(=O)N[C@@H](Cc2ccccc2)C(=O)OC)cs1)C(C)C` [Compound 29], the EC50 in test [1] (3H thymidine method, 72 h incubation, read-out: EC50, HCT-15) amounted to 0.18 nM; in [2] it was 0.4 nM; in test [3] (3H thymidine method, 72 h incubation, read-out: EC50, NCI-H460), 0.21 nM; in test [4] (3H thymidine method, 72 h incubation, read-out: EC50, A549), 0.44 nM; in test [5] (3H thymidine method, 72 h incubation, read-out: EC50, PC3), 0.21 nM; in test [6] (3H thymidine method, 72 h incubation, read-out: EC50, BT474), 0.57 nM. The EC50 in test [7] (3H thymidine method, 72 h incubation, read-out: EC50, 786-O) stood at 1.2 nM; in [8] (3H thymidine method, 72 h incubation, read-out: EC50, UO-31), 0.13 nM; in [9] (3H thymidine method, 72 h incubation, read-out: EC50, H740), 0.41 nM; in [10] (3H thymidine method, 72 h incubation, read-out: EC50, DMS53) it was 0.28 nM; in test [11] (3H thymidine method, 72 h incubation, read-out: EC50, HL-60), 0.0099 nM; in [12] (3H thymidine method, 72 h incubation, read-out: EC50, OVCAR8) it was 0.7 nM. In addition, the EC50 in [13] (3H thymidine method, 72 h incubation, read-out: EC50, Nomo-1) stood at 0.0075 nM; in [14] (3H thymidine method, 72 h incubation, read-out: EC50, Raji), 0.024 nM; in test [15] (ATP luminescence, HCT-15, 72 h incubation, read-out: EC50 HCT-15 (72 h)), 4.5 nM; in [16] (ATP luminescence, 48 h incubation, read-out: EC50 Hep3B (48 h)) it was 1.6 nM; in test [17] (ATP luminescence, A2058, 72 h incubation, read-out: EC50 A2058 (72 h)), 2.9 nM; in [18] (ATP luminescence, 72 h incubation, read-out: EC50 HPAC (72 h)), 4.9 nM. For the same compound, the EC50 in test [19] (ATP luminescence, BT474, 48 h incubation, read-out: EC50 BT474 (48 h)) came out at 1.5 nM; in [20] (ATP luminescence, CEM-C1, 72 h incubation, read-out: EC50 CEM-C1 (72 h)), 0.85 nM; in [21] (ATP luminescence, SW-620, 96 h incubation, read-out: EC50 SW-620 (96 h)) it was 1.5 nM.
